Results as given in ChEMBL document CHEMBL6087420, “Synthesis and pharmacodynamic evaluation of 2-aminoindole derivatives against influenza A virus in vitro/vivo” (Eur J Med Chem, 2025).
The source made the active and inactive calls. The rule behind the calls is not given here.

Key:
Influenza A virus [1] = assay: Anti-influenza activity against influenza A virus H1NI (A/Weiss/43) infected in dog MDCK cells assessed as virus inhibition rate at 100 uM incubated for 72 hrs by MTT assay; format: functional, organism-based
Influenza A virus [2] = assay: Anti-influenza activity against influenza A virus H1NI (A/Weiss/43) infected in dog MDCK cells assessed as virus inhibition rate at 0.625 uM incubated for 72 hrs by MTT assay; format: functional, organism-based
[3] = Cytotoxicity against dog MDCK cells after 72 hrs incubation by MTT assay; format: toxicity, cell-based, Canis lupus familiaris
Influenza A virus [4] = assay: Anti-influenza activity against influenza A virus H1NI (A/Weiss/43) infected in dog MDCK cells assessed as virus inhibition rate incubated for 72 hrs by MTT assay; format: functional, organism-based
[5] = Selectivity index, ratio of CC50 for dog MDCK cells to EC50 for antiviral activity against Influenza A virus H1N1 (A/Weiss/43) infected in MDCK cells; format: toxicity, cell-based
Influenza A virus [6] = assay: Inhibition of influenza A virus infection induced apoptosis in MDCK cells infected with influenza virus assessed as late apoptotic cells at 50 uM incubated for 36 hrs by AnnexinV-FITC/PI staining based flow cytometry (reference value: 13.2%); format: functional; design: scale not given: the % may be the effect or the level left
Influenza A virus [7] = assay: Anti-influenza activity against influenza A virus H1NI (A/Virginia/ATCC2/2009) infected in dog MDCK cells incubated for 72 hrs by MTT assay; format: functional, organism-based
Influenza A virus [8] = assay: Inhibition of influenza A virus infection induced apoptosis in MDCK cells infected with influenza virus assessed as early apoptotic cells at 50 uM incubated for 36 hrs by AnnexinV-FITC/PI staining based flow cytometry (reference value: 18.2%); format: functional; design: scale not given: the % may be the effect or the level left
[9] = Selectivity index, ratio of CC50 for dog MDCK cells to EC50 for antiviral activity against Influenza A virus H1NI (A/Virginia/ATCC2/2009) infected in MDCK cells; format: toxicity, cell-based; settings: read-out: Selectivity Index
Influenza A virus [10] = assay: Inhibition of influenza A virus infection induced apoptosis in MDCK cells infected with influenza virus assessed as viable cells at 50 uM incubated for 36 hrs by AnnexinV-FITC/PI staining based flow cytometry (reference value: 66.9%); format: functional
Influenza A virus [11] = assay: Inhibition of influenza A virus infection induced apoptosis in MDCK cells infected with influenza virus assessed as necrotic cells at 50 uM incubated for 36 hrs by AnnexinV-FITC/PI staining based flow cytometry (reference value: 1.79%); format: functional; design: scale not given: the % may be the effect or the level left
[12] = Selectivity index, ratio of CC50 for dog MDCK cells to EC50 for antiviral activity against Influenza A virus […] H3N2 (A/California/2014) infected in MDCK cells; format: toxicity, cell-based; settings: read-out: Selectivity Index
Influenza A virus [13] = assay: Anti-influenza activity against influenza A virus H3N2 (A/California/2014) infected in dog MDCK cells incubated for 72 hrs by MTT assay; format: functional, organism-based

SMILES | Activity (Influenza A virus [1]) | Virus inhibition rate at 0.625 uM (Influenza A virus [2]) | CC50 at 72 h [3] | also measured
Cc1ccc(S(=O)(=O)n2c(NS(C)(=O)=O)c(-c3cccc(F)c3)c3ccccc32)cc1 | inactive | Not_active | 55 µM | –
Cc1ccc(-c2c(NS(C)(=O)=O)n(S(=O)(=O)c3ccc(C)cc3)c3ccccc23)cc1 | inactive | Not_active | 14.1 µM | –
Cc1ccc(S(=O)(=O)n2c(NS(C)(=O)=O)c(-c3ccccc3)c3cc(F)ccc32)cc1 | inactive | Not_active | 24.4 µM | –
Cc1ccc(S(=O)(=O)n2c(NS(C)(=O)=O)c(-c3ccccc3F)c3ccccc32)cc1 | inactive | Not_active | < 6.25 µM | –
COc1ccc(-c2c(NS(C)(=O)=O)n(S(=O)(=O)c3ccc(C)cc3)c3ccccc23)cc1 | – | – | 43.6 µM | EC50 (Influenza A virus [4]): 2 µM; selectivity ratio ([5]; read-out: Ratio CC50/EC50): 21.8
Cc1ccc(S(=O)(=O)n2c(NS(=O)(=O)c3ccc([N+](=O)[O-])cc3)c(-c3ccccc3)c3ccccc32)cc1 | inactive | Not_active | < 6.25 µM | –
Cc1ccc(S(=O)(=O)n2c(NS(C)(=O)=O)c(-c3ccccc3)c3ccc(F)cc32)cc1 | inactive | Not_active | 22.8 µM | –
Cc1ccc(S(=O)(=O)n2c(NS(C)(=O)=O)c(-c3ccccc3)c3cc(Cl)ccc32)cc1 | inactive | Not_active | 12.8 µM | –
Cc1ccc(S(=O)(=O)n2c(NS(C)(=O)=O)c(-c3cccc(Br)c3)c3ccccc32)cc1 | inactive | Not_active | 16.9 µM | –
Cc1ccc(S(=O)(=O)n2c(NS(C)(=O)=O)c(-c3ccc(Br)cc3)c3ccccc32)cc1 | inactive | Not_active | 13.2 µM | –
COc1ccc(S(=O)(=O)n2c(NS(C)(=O)=O)c(-c3ccccc3)c3ccccc32)cc1 | inactive | Not_active | 12.6 µM | –
COc1ccc2c(-c3ccccc3)c(NS(C)(=O)=O)n(S(=O)(=O)c3ccc(C)cc3)c2c1 | inactive | Not_active | 31.6 µM | –
Cc1ccc(S(=O)(=O)n2c(NS(C)(=O)=O)c(-c3ccccc3)c3ccccc32)cc1 | inactive | Not_active | 59 µM | –
Cc1ccc(S(=O)(=O)n2c(NS(=O)(=O)c3ccccc3)c(-c3ccccc3)c3ccccc32)cc1 | inactive | Not_active | 109 µM | –
Cc1ccc(S(=O)(=O)n2c(NS(C)(=O)=O)c(-c3ccccc3)c3ccc(C)cc32)cc1 | inactive | Not_active | 5.45 µM | –
Cc1ccc(S(=O)(=O)n2c(NS(C)(=O)=O)c(-c3ccccc3)c3cc(C)ccc32)cc1 | inactive | Not_active | 21.3 µM | –
CS(=O)(=O)Nc1c(-c2ccccc2)c2ccccc2n1S(=O)(=O)c1ccc(Cl)cc1 | inactive | Not_active | 14.6 µM | –

SMILES | Activity (Influenza A virus [1]) | Virus inhibition rate at 0.625 uM (Influenza A virus [2]) | CC50 at 72 h [3] | also measured
Cc1ccc(S(=O)(=O)n2c(NS(C)(=O)=O)c(-c3ccccc3)c3cc(Br)ccc32)cc1 | inactive | Not_active | < 6.25 µM | –
CS(=O)(=O)Nc1c(-c2ccccc2)c2ccccc2n1S(=O)(=O)c1ccccc1 | inactive | Not_active | 36.4 µM | –
Cc1ccc(S(=O)(=O)n2c(NS(C)(=O)=O)c(-c3cccs3)c3ccccc32)cc1 | inactive | Not_active | 53.6 µM | –
Cc1ccc(S(=O)(=O)n2c(NS(=O)(=O)c3ccc(Cl)cc3)c(-c3ccccc3)c3ccccc32)cc1 | inactive | Not_active | < 6.25 µM | –
Cc1ccc(S(=O)(=O)n2c(NS(C)(=O)=O)c(-c3ccccc3)c3c(C)cc(C)cc32)cc1 | inactive | Not_active | 357 µM | –
Cc1ccc(S(=O)(=O)Nc2c(-c3ccccc3)c3ccccc3n2S(=O)(=O)c2ccc(C)cc2)cc1 | inactive | Not_active | 414 µM | –
Cc1ccc(S(=O)(=O)n2c(NS(C)(=O)=O)c(-c3cccc(C)c3)c3ccccc32)cc1 | inactive | Not_active | 16.5 µM | –
Cc1ccc(S(=O)(=O)n2c(NS(C)(=O)=O)c(-c3ccc(F)cc3)c3ccccc32)cc1 | inactive | Not_active | 41 µM | –
CS(=O)(=O)Nc1c(-c2ccccc2)c2ccccc2n1S(=O)(=O)c1ccc([N+](=O)[O-])cc1 | inactive | Not_active | 55.6 µM | –
COc1ccc(S(=O)(=O)Nc2c(-c3ccccc3)c3ccccc3n2S(=O)(=O)c2ccc(C)cc2)cc1 | inactive | Not_active | 434 µM | –
Cc1ccc(S(=O)(=O)n2c(NS(C)(=O)=O)c(-c3ccccc3C)c3ccccc32)cc1 | inactive | Not_active | 43 µM | –
CCOC(=O)C1=C[C@@H](OC(CC)CC)[C@H](NC(C)=O)[C@@H](N)C1 [OSELTAMIVIR] | – | – | > 800 µM | Activity (Influenza A virus [6]): 2.33%; EC50 (Influenza A virus [7]; Influenza A virus, H1NI (A/Virginia/ATCC2/2009), MDCK, 72 h): 11.7 µM; Activity (Influenza A virus [8]): 3.85%; EC50 (Influenza A virus [4]): 7.1 µM; selectivity ratio ([5]; read-out: Selectivity Index): > 107; selectivity ratio [9]: > 68.6; Activity (Influenza A virus [10]): 91.7%; Activity (Influenza A virus [11]): 2.11%; selectivity ratio [12]: > 30.4; EC50 (Influenza A virus [13]): 26.3 µM
Cc1ccc(S(=O)(=O)n2c(NS(C)(=O)=O)c(-c3ccccc3Cl)c3ccccc32)cc1 | inactive | Not_active | 20.9 µM | –
CS(=O)(=O)Nc1c(-c2ccccc2)c2ccccc2n1S(C)(=O)=O | inactive | Not_active | 341 µM | –
Cc1ccc(S(=O)(=O)n2c(NS(C)(=O)=O)c(-c3ccc(Cl)cc3)c3ccccc32)cc1 | inactive | Not_active | 14.8 µM | –
NC(=O)c1ncn([C@@H]2O[C@H](CO)[C@@H](O)[C@H]2O)n1 [RIBAVIRIN] | – | – | 513 µM | Activity (Influenza A virus [6]): 1.62%; EC50 (Influenza A virus [7]; mdck): 8.2 µM; Activity (Influenza A virus [8]): 3.8%; EC50 (Influenza A virus [4]): 7.33 µM; selectivity ratio ([5]; read-out: Selectivity Index): 70; selectivity ratio [9]: 62.6; Activity (Influenza A virus [10]): 92.8%; Activity (Influenza A virus [11]): 1.74%; selectivity ratio [12]: 40; EC50 (Influenza A virus [13]): 12.8 µM
Cc1ccc(S(=O)(=O)n2c(NS(C)(=O)=O)c(-c3cccc(Cl)c3)c3ccccc32)cc1 | inactive | Not_active | 67.1 µM | –
